From patent US20160175412A1, “PREVENTION OF TYPE 1 DIABETES BY TREG VACCINATION WITH AN INSULIN MIMETOPE” (DANA-FARBER CANCER INSTITUTE, INC., priority 2010, published 2016)
Where no end group is shown, it is not given here.

Legend:
[1] = test system: HA(107-119) TCR transgenic Foxp3GFP-reporter T cells; assay: in vivo HA-specific Treg conversion, congenic adoptive-transfer system; design: species or system mouse; details: injection of mTOR-inhibitor
Protocol: (b) In vivo conversion of naïve CD4+CD25-T cells expressing a transgenic TCR of interest into Treg cells using a congenic transfer system. HA(107-119)TCR transgenic CD4+/Foxp3-/GFP Thy1.1+ cells are transferred iv into a host such as a Balb/c thy1.2+ mouse. A to single dose of a covalent conjugate of […] fusion antibody is administered ip. Analysis of Foxp3 expression in CD4-enriched Thy1.1+ spleenocytes and lymph nodes is conducted after 14 days flow cytometrically.
For the exploitation of antigen-specific Treg induction to interfere with unwanted immunity as diabetes the inventors performed optimization studies in order to achieve stable de novo differentiation of naive T cells into Tregs in sufficient numbers. Therefore we aimed at using combinations of compounds that enhance conversion, selectively expand the generated Tregs and allow for maintenance of the Treg phenotype. […] To induce rapid expansion of these Tregs the inventors injected the mice with IL-2 mixed with an optimized amount of a particular IL-2 monoclonal antibody (IL-2/IL-2 ab complexes) for a short period of 3 days at the end of the conversion period. […] Moreover, these Tregs were stable and persisted over a period of 4 months, which is an important feature as it allows for prospective induction to suppress unwanted immune responses.

IAu = biological target: T1, IAu (Mus musculus, UniProt P06344+P14438); details: presented by IAu; cited from earlier work
T1 sequence (P14438 1-227): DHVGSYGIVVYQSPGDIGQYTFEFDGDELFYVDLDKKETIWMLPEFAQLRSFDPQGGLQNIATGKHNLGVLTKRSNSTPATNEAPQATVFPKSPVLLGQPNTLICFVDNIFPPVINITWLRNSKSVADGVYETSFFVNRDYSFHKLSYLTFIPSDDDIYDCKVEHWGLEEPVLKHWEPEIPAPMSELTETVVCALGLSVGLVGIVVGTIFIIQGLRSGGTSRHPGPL
T1 sequence (P06344 28-263): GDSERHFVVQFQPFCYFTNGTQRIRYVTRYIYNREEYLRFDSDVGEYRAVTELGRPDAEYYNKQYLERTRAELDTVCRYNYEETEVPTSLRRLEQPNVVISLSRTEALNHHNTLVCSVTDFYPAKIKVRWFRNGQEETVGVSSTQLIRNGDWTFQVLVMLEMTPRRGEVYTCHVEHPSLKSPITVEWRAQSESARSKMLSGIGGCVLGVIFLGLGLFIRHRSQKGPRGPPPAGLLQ

NOD InsB:9-23 Tg T cells = assay: thymidine incorporation T cell proliferation assay; assay type: cell-based, mouse; details: Insulin B:9-23 TCR transgenic T cells
Text: A key feature of the adaptive immune response is the ability of antigen-specific T cells to rapidly proliferate following antigenic-stimulation. Assays to assess the proliferative activity of antigen-specific T cells are a core tool to allow for evaluation of TCR- and MHC-binding properties based on the growth rate of the T cell populations after stimulation with a defined amount of antigen. A historically established assay is the detection of tritiated thymidine ^3H uptake. Therefore CD4+ T-cells from Rag def. NOD mice expressing a transgenic TCR for the a peptide of interest (e.g., Insulin B 9:23 peptide) are isolated by the use of a magnetic bead separation approach. Purified CD11^+DCs from normal NOD mice are used as antigen-presenting cells and irradiated. To induce proliferation of antigen-specific CD4^+ T cells, co-cultures are set up with naïve Insulin-specific CD4^+ T cells in 200 μl RPMI1640 medium supplemented with 10% (vol/vol) FCS in 96-well round-bottomed plates. Soluble peptides (e.g., natural InsulinB9:23 peptide) or mimetopes (e.g., Insulin mimetopes) are added to the cultures in various concentration (10 μg/ml to 0.01 μg/ml). Analysis of proliferation of antigen-specific T cells is performed by incorporation of ^3H-thymidine added for the last 12 hours of a 70 hours culture period followed by scintillation counting. […]

IAg^7 [2] = assay: peptide binding to MHC class II IAg7; design: species or system mouse; details: MHC class II IAg^7
Text: The natural Insulin B:9-23 peptide is known to be associated with Type I diabetes. This peptide binds with poor affinity to IAg^7 in multiple binding registers.
Chromogranin A was recently identified as the antigenic source of the highly pathogenic BDC2.5 T cell clone associated with Type I diabetes. WE14 is naturally processed from Chromogranin A by a furin-like protease. […] Studies have shown that this epitope only partially fills the peptide binding groove.
(§1) The inventors performed similar protocols of antigen-specific Treg conversion studies to prevent the development of spontaneous diabetes in NOD mice by injecting DEC205 fusion antibodies that contain the beta chain of insulin. […] The inventors hypothesized that weak epitopes may fail to induce efficient Treg conversion, and we initiated studies using Insulin B:9-23 TCR transgenic mice and identified in T cell proliferation assays insulin mimetopes that stimulate better than the Insulin B:9-23 peptide itself because of an increased binding capacity to MHC class II IAg^7, compared to the aforementioned Insulin B:9-23 peptide. In fact such mimetopes achieved better conversion of naive T cells expressing the transgenic TCR. […]

[3] = test system: T cells with a specific transgenic TCR for the K^d54-68 peptide; details: cited from earlier work
IAg^7 [4] = details: cited from earlier work
BDC2.5 T cells = details: cited from earlier work
NOD mice = assay: prevention of spontaneous diabetes in NOD mice; assay type: in vivo, mouse; details: injection into young NOD mice
Text: The inventors have been successful in inducing HY-specific Treg from naIve T cells in wt female B6 mice that were infused with HY-peptide and visualized with HY-peptide, class II tetramers (1). However, a similar approach to prevent diabetes in NOD mice by injecting insulin B:9-23 peptide into young NOD mice failed.
as §1, with “TCR. The inventors then studied the impact of these insulin-derived mimetopes in young NOD mice on diabetes development via subimmunogenic peptide delivery using either newly designed DEC205 peptide fusion antibodies (see description below) or peptide-infusing mini-osmotic pumps.” for “TCR.”

In the case of `CO[C@H]1C[C@@H]2CC[C@@H](C)[C@@](O)(O2)C(=O)C(=O)N2CCCC[C@H]2C(=O)O[C@H]([C@H](C)C[C@@H]2CC[C@@H](OCCO)[C@H](OC)C2)CC(=O)[C@H](C)/C=C(\C)[C@@H](O)[C@@H](OC)C(=O)[C@H](C)C[C@H](C)/C=C/C=C/C=C/1C` [Everolimus], the “frequency of newly generated HA-specific Foxp3+ Tregs” value [1] is reported as “substantially increases”.
For “Act-11 MBP: SEQ ID NO: 8, Ac-ASQKRPSQRHG; acetylated N-terminal myelin basic protein epitope”, the epitope strength (IAu) is listed as “weak epitope”.
With “InsMim3 peptide mimetope: SEQ ID NO: 2, VEALYLVCGEEG; insulin mimetope, p9 Arginine exchanged to Glutamic acid (InsMim3 peptide mimetope)” the “stimulation of T cells compared with natural Insulin B:9-23 peptide” value (NOD InsB:9-23 Tg T cells) was “better stimulation of T cells” and the “MHC binding compared with natural Insulin B:9-23 peptide” value (IAg^7 [2]) was “enhanced MHC binding”.
For “K^d54-68 peptide: SEQ ID NO: 6, QEGPEYWEEQTQRAK; MHC class I derived processed peptide presented by IAb (Kd 54-68 peptide)”, the agonist strength ([3]; MHC-derived transplantation antigen) is given as “weak agonist” and the “proliferation of specific TCR transgenic T cells” value ([3]; dendritic cells pulsed with peptide) is given as “not able to stimulate the proliferation”.
For “WE14: SEQ ID NO: 4, WSRMDQLAKELTAE; naturally processed from Chromogranin A (WE14 peptide)”, the “binding to IAg^7 (MHC-binding)” value (IAg^7 [4]) is listed as “weakly” and the “stimulation of BDC2.5 T cells” value (BDC2.5 T cells) is listed as “poor stimulation”.
For “natural Insulin B:9-23 peptide: SEQ ID NO: 1, SHLVEALYLVCGERG; natural peptide associated with Type I diabetes (Insulin B peptide)”, the “binding to IAg^7 (MHC-binding)” value (IAg^7 [4]) is given as “poor affinity” and the prevention of diabetes (NOD mice) is given as “failed”.
In the case of “pS3 peptide: SEQ ID NO: 5, RLGLWVRME; strong stimulating mimetope of WE14 (pS3 peptide mimetope)”, the “binding to IAg^7 (MHC-binding)” value (IAg^7 [4]) is given as “improved MHC-binding” and the “stimulation of BDC2.5 T cells” value (BDC2.5 T cells) is given as “strong stimulating mimetope”.
